Data taken from US9701556B1, “Compositions, methods, and systems for reducing contamination” (priority 2004, dated 2017).
Where “and” joins values, the source holds several entries; their conditions need not be identical. Identical values can stand only once.

Experiments:
[1] = Treatment of sulfides in municipal wastewater with ferric chelants and hydrogen peroxide; conditions: for Sulfide Remaining, Dose 1 12 ppm Chelant / Sulfide Remaining, Dose 2 6 ppm Chelant: 37.8 ppm H2O2, start 25.4 ppm sulfide; for Sulfide Remaining, Dose 1 20 ppm Chelant / Sulfide Remaining, Dose 2 10 ppm Chelant: 105.8 ppm H2O2, start 42.3 ppm sulfide; for Percentage of Sulfide Treated, Dose 1 12 ppm Chelant 37.8 ppm H2O2 / Percentage of Sulfide Treated, Dose 2 6 ppm Chelant 37.8 ppm H2O2 / Percentage of Sulfide Treated, Dose 1 20 ppm Chelant 105.8 ppm H2O2 / Percentage of Sulfide Treated, Dose 2 10 ppm Chelant 105.8 ppm H2O2: after 30 minutes; for Percentage of Sulfide Treated, Dose 1 12 ppm Chelant 37.8 ppm H2O2 / Percentage of Sulfide Treated, Dose 2 6 ppm Chelant 37.8 ppm H2O2: 1.5:1.0 ratio of peroxide to sulfide; for Percentage of Sulfide Treated, Dose 1 20 ppm Chelant 105.8 ppm H2O2 / Percentage of Sulfide Treated, Dose 2 10 ppm Chelant 105.8 ppm H2O2: 2.5:1.0 ratio of peroxide to sulfide; for sulfide treatment compared with hydrogen peroxide alone, in words: over 30 minutes of treatment; for sulfide reduction after 15 minutes: 2.5:1.0 peroxide to sulfide, 105.8 ppm hydrogen peroxide, 20 ppm chelant where added, peroxide alone averaged; for sulfide treatment after 15 minutes: 37.8 ppm hydrogen peroxide, 12 ppm chelant where added
heterotrophic bacteria = assay: Disinfection of wastewater with chelated iron compounds, total heterotrophic bacteria counts; assay type: cell-based; conditions: for Test 1 CFUs/ml, 19.8 ppm H2O2 6 ppm Fe-Chelant / Test 2 CFUs/ml, 39.6 ppm H2O2 12 ppm Fe-Chelant / Test 3 CFUs/ml, 12 ppm Fe-Chelant: 30 minutes, raw average 18,188 CFUs; for Test 3 CFUs/ml, 12 ppm Fe-Chelant: chelant alone, no H2O2; for disinfection effect, in words: compared with hydrogen peroxide alone
Experimental: A 10 gallon sample of wastewater from the Massaponax Wastewater Plant was collected and allowed to sit undisturbed for thirty minutes. The clarified supernatant was then pored off of the top of the settled solids within the sample. The supernatant was then mixed and four samples were collected to determine untreated heterotrophic bacteria counts. […] were dissolved in distilled water at 0.4334M. Ferric chloride was added in amounts to achieve saturation of chelant sites on the respective chelants. […] Twenty individual liter samples of supernatant were then decanted from the well-mixed wastewater sample for testing. Four chelated iron products with peroxide were tested at two test concentrations and compared to samples receiving peroxide only and iron chelate only. […] Individual samples were dosed with the respective additives, mixed with a magnetic stir bar and allowed to react for 30 minutes. Samples were then decanted to sterile sample containers containing sodium thiosulfate to stop the oxidation process and preserve the sample. Samples were then placed in a refrigerator until all samples were finished. Samples were packaged in a standard cooler with ice packs and sent via overnite delivery to ProChem Labs in Lynchburg, Va. for analysis for total heterotrophic bacteria counts.

[2] = Treatment of sulfides in municipal wastewater with ferric chelants and ozone; conditions: 4 ppm ferric chelant where added; for Overall total percentage of sulfide reduction: ozone; for sulfide remaining: ozone at ~13.4 ppm
[3] = Comparative treatment of 2,4-D in water, GC analysis; conditions: after four hours
Fecal Coliform = assay: Disinfection of wastewater, fecal coliform count; assay type: cell-based; conditions: 50 microliters 35% H2O2 (with or without 50 microliters Fe-GLC), after twenty minutes; control 2200
[4] = cited from earlier work
[5] = Series One, contact time 5 minutes
[6] = Series One, contact time 15 minutes
[7] = Series One, contact time 30 minutes
[8] = Series One, no H2O2, start 25.4 ppm sulfide, contact time 30 minutes
[9] = Series Two, 20 ppm chelant, no H2O2, start 42.3 ppm sulfide, contact time 30 minutes
[10] = Series Two, contact time 5 minutes
[11] = Series Two, contact time 15 minutes
[12] = Series Two, contact time 30 minutes
[13] = start 13.70, contact time 5 minutes
[14] = start 13.70, contact time 10 minutes
[15] = start 13.70, contact time 20 minutes
[16] = Series One, contact time 5 minutes, listed as Ferric NTA

Molecule | Sulfide Remaining, Dose 1 12 ppm Chelant [1, 5] [ppm] | Sulfide Remaining, Dose 2 6 ppm Chelant [1, 5] [ppm] | Sulfide Remaining, Dose 1 12 ppm Chelant [1, 6] [ppm] | Sulfide Remaining, Dose 2 6 ppm Chelant [1, 6] [ppm] | Sulfide Remaining, Dose 1 12 ppm Chelant [1, 7] [ppm] | Sulfide Remaining, Dose 2 6 ppm Chelant [1, 7] [ppm] | Sulfide Remaining, Dose 4 Chelant Only [1, 8] [ppm] | Sulfide Remaining, Dose 4 Chelant Only [1, 9] [ppm] | Sulfide Remaining, Dose 1 20 ppm Chelant [1, 10] [ppm] | Sulfide Remaining, Dose 2 10 ppm Chelant [1, 10] [ppm] | Sulfide Remaining, Dose 1 20 ppm Chelant [1, 11] [ppm] | Sulfide Remaining, Dose 2 10 ppm Chelant [1, 11] [ppm] | Sulfide Remaining, Dose 1 20 ppm Chelant [1, 12] [ppm] | Sulfide Remaining, Dose 2 10 ppm Chelant [1, 12] [ppm] | Percentage of Sulfide Treated, Dose 1 12 ppm Chelant 37.8 ppm H2O2 [1] | Percentage of Sulfide Treated, Dose 2 6 ppm Chelant 37.8 ppm H2O2 [1] | Percentage of Sulfide Treated, Dose 1 20 ppm Chelant 105.8 ppm H2O2 [1] | Percentage of Sulfide Treated, Dose 2 10 ppm Chelant 105.8 ppm H2O2 [1] | sulfide treatment compared with hydrogen peroxide alone, in words [1] | Overall total percentage of sulfide reduction [2] [%] | further results
Ferric Ascorbate | 16.6 | 17.2 | 11.8 | 12.4 | 9.6 | 10.4 | 24.6 | 41.8 | 26.9 | 27.2 | 17.7 | 19.7 | 10.8 | 11.9 | 62.2 | 59.0 | 74.5 | 71.9 | some modest improvement over hydrogen peroxide treatment alone | – | –
O=C([O-])CN(CCO)CC(=O)[O-].[Fe+3] [Fe-HEIDA] | – | – | – | – | – | – | – | – | – | – | – | – | – | – | 44.1 | 41.3 | 69.5 | 66.9 | did not perform well | 60 | Test 1 CFUs/ml, 19.8 ppm H2O2 6 ppm Fe-Chelant (heterotrophic bacteria): 1350 CFUs/ml; Test 2 CFUs/ml, 39.6 ppm H2O2 12 ppm Fe-Chelant (heterotrophic bacteria): 84 CFUs/ml; Test 3 CFUs/ml, 12 ppm Fe-Chelant (heterotrophic bacteria): 16,700 CFUs/ml; disinfection effect, in words (heterotrophic bacteria): very little effect on viable cells beyond that exhibited by hydrogen peroxide alone; Overall total percentage of sulfide reduction ([2]; listed as ferric HEIDA): 60%
O=C([O-])CN(CCN(CC(=O)[O-])CC(=O)[O-])CC(=O)[O-].[Fe+3] [Fe-EDTA] | – | – | – | – | – | – | – | – | – | – | – | – | – | – | 68.5 | 64.2 | 87.5 | 83.7 | noticeably better | 64 | Test 1 CFUs/ml, 19.8 ppm H2O2 6 ppm Fe-Chelant (heterotrophic bacteria): 360 CFUs/ml; Test 2 CFUs/ml, 39.6 ppm H2O2 12 ppm Fe-Chelant (heterotrophic bacteria): 59 CFUs/ml; Test 3 CFUs/ml, 12 ppm Fe-Chelant (heterotrophic bacteria): 18,200 CFUs/ml; disinfection effect, in words (heterotrophic bacteria): very little effect on viable cells beyond that exhibited by hydrogen peroxide alone; Overall total percentage of sulfide reduction ([2]; listed as ferric EDTA): 64%; sulfide reduction after 15 minutes [1]: 60%; sulfide treatment after 15 minutes [1]: 61%
O=C([O-])CN(CC(=O)[O-])CC(=O)[O-].[Fe+3] [Fe-NTA] | – | – | – | – | – | – | – | 41.0 | 23.3 | 26.7 | 12.6 | 16.3 | 2.8 | 4.2 | 78.3 | 68.9 | 93.4 | 90.0 | noticeably better | 91 | Test 1 CFUs/ml, 19.8 ppm H2O2 6 ppm Fe-Chelant (heterotrophic bacteria): 370 CFUs/ml; Test 2 CFUs/ml, 39.6 ppm H2O2 12 ppm Fe-Chelant (heterotrophic bacteria): 75 CFUs/ml; Test 3 CFUs/ml, 12 ppm Fe-Chelant (heterotrophic bacteria): 18,300 CFUs/ml; disinfection effect, in words (heterotrophic bacteria): very little effect on viable cells beyond that exhibited by hydrogen peroxide alone; sulfide remaining [2, 13]: 3.40 ppm; sulfide remaining [2, 14]: 1.90 ppm; sulfide remaining [2, 15]: 1.30 ppm; Overall total percentage of sulfide reduction ([2]; listed as ferric NTA): 91%; sulfide reduction after 15 minutes [1]: 70.2%; sulfide treatment after 15 minutes [1]: 73%; Sulfide Remaining, Dose 1 12 ppm Chelant [1, 16]: 15.2 ppm and 20.0 ppm; Sulfide Remaining, Dose 2 6 ppm Chelant [1, 16]: 15.9 ppm and 20.3 ppm; Sulfide Remaining, Dose 2 6 ppm Chelant ([1]; Series One, contact time 15 minutes, listed as Ferric NTA): 12.6 ppm and 16.4 ppm; Sulfide Remaining, Dose 2 6 ppm Chelant ([1]; Series One, contact time 30 minutes, listed as Ferric NTA): 7.9 ppm and 14.9 ppm; Sulfide Remaining, Dose 4 Chelant Only ([1]; Series One, no H2O2, start 25.4 ppm sulfide, contact time 30 minutes, listed as Ferric NTA): 24.6 ppm and 25.2 ppm
O=C([O-])CC(O)(CC(=O)[O-])C(=O)[O-].[Fe+3] [Ferric Citrate] | 17.8 | 18.1 | 14.1 | 15.8 | 10.5 | 12.4 | 25.0 | 42.0 | 30.1 | 29.9 | 19.6 | 20.2 | 14.3 | 12.9 | 58.7 | 51.2 | 66.2 | 69.5 | – | – | –
ferric gluconate [Fe-GLC] | 14.2 | 15.9 | 7.3 | 11.5 | 4.3 | 7.4 | 24.9 | 43.0 | 18.6 | 23.5 | 5.6 | 7.3 | 1.1 | 2.2 | 83.1 | 70.8 | 97.4 | 94.8 | noticeably better | 90 | effect on 2,4-D, in words [3]: substantially reduced; Fecal Coliform (Fecal Coliform): no detectable CFUs; Test 1 CFUs/ml, 19.8 ppm H2O2 6 ppm Fe-Chelant (heterotrophic bacteria): 98 CFUs/ml; Test 2 CFUs/ml, 39.6 ppm H2O2 12 ppm Fe-Chelant (heterotrophic bacteria): 28 CFUs/ml; Test 3 CFUs/ml, 12 ppm Fe-Chelant (heterotrophic bacteria): 22,600 CFUs/ml; disinfection effect, in words (heterotrophic bacteria): better than peroxide alone; sulfide remaining [2, 13]: 3.40 ppm; sulfide remaining [2, 14]: 2.80 ppm; sulfide remaining [2, 15]: 1.40 ppm; Overall total percentage of sulfide reduction ([2]; listed as Fe-Gluconate): 90%; sulfide reduction after 15 minutes [1]: 86.8%; sulfide treatment after 15 minutes [1]: 70%
Ferric Gallate | 18.4 | 18.0 | 14.0 | 13.6 | 10.4 | 11.2 | 24.7 | 43.0 | 29.2 | 27.8 | 20.2 | 22.2 | 13.2 | 13.1 | 59.1 | 55.9 | 68.7 | 69.0 | did not perform well overall | – | –
O=[O+][O-] [Ozone only, Ozone] | – | – | – | – | – | – | – | – | – | – | – | – | – | – | – | – | – | – | – | 46 | sulfide remaining [2, 13]: 8.05 ppm; sulfide remaining [2, 14]: 7.50 ppm; sulfide remaining [2, 15]: 7.40 ppm
O=C([O-])[C@H](O)[C@@H](O)[C@H](O)[C@H](O)CO.[Na+] [Sodium gluconate] | – | – | – | – | – | – | – | – | – | – | – | – | – | – | – | – | – | – | – | – | readily biodegradable ([4]; after 2 days): 98%; solubility in water [4]: very soluble in water
